This note sets out measurements from US11459337B2, “Isothiazolo[5,4-D]pyrimidine compound as IRAK4 inhibitor” (priority 2018, dated 2022).

As usually defined, the pIC50 is the negative decadic logarithm of the IC50, by convention in mol/L. The bioavailability is the share of a dose that reaches the circulation, judged against a reference dose that is usually intravenous. What is called Tmax is the time from dosing to the highest level.

pIC50: −log10 of the molar value. Where two headings read alike, the source gives them in different places.

One data set addresses human IRAK4 (Homo sapiens (Human), UniProt Q9NWZ3). In words: 33P-labeled kinase activity assay (Reaction Biology Corp), in vitro enzymatic activity. Type of data set: biochemical. As to conditions: 20 μM ATP, 3 nM kinase, MBP substrate. The method, then: The inhibitory activity of the test compounds against human IRAK4 was evaluated by measuring IC50 values in a ^33P-labeled kinase activity assay (Reaction Biology Corp). Buffer conditions: 20 mM Hepes (pH 7.5), 10 mM MgCl2, 1 mM EGTA, 0.02% Brij35, 0.02 mg/mL BSA, 0.1 mM Na3VO4, 2 mM DTT, 1% DMSO. Procedures: The test compound was dissolved in DMSO at room temperature to prepare a 10 mM solution for later use. The substrate was dissolved in fresh buffer, to which the kinase was added and mixed well. The DMSO solution containing the test compound was added to the above mixed reaction system by an acoustic technique (Echo 550). The concentrations of the compounds in reaction system were 10 μM, 3.33 μM, 1.11 μM, 0.370 μM, 0.123 μM, 41.2 nM, 13.7 nM, 4.57 nM, 1.52 nM, and 0.508 nM. After 15 minutes of incubation, the reaction was started by adding ^33P-ATP (activity: 0.01 μCi/μL; the corresponding concentration is listed in Table 1). Supplier's catalog number, lot number and concentration information in the reaction system for IRAK4 and its substrate are listed in Table 1. After 120 minutes of reaction at room temperature, the resulting solution was loaded on P81 ion exchange chromatography paper sheet (Whatman #3698-915). After repeated washing with 0.75% phosphoric acid solution, the radioactivity of the phosphorylated substrate residue on the paper sheet was measured. The kinase activity data are shown as a comparison of the kinase activity of the test compound and the kinase activity of the blank (DMSO only) and a curve was fitted using Prism4 software (GraphPad) to give IC50 values, with the experimental results shown in Table 2. [table]

Another data set relates to THP-1 cells. In words: TNF-α ELISA assay in LPS-stimulated THP-1 cells. Type of data set: cell-based, human. As to conditions: Homo sapiens, THP-1, 18 h, TNF-α in supernatant, 150 ng/mL LPS. The method, then:
TNF-α ELISA Assay in THP-1 Cells THP-1 human acute unicellular leukemia cells were purchased from ATCC (Cat #TIB-202) and incubated in a 37° C., 5% CO2 incubator. The medium was RPMI1640 (Gibco, Cat #22400-105), the supplementary was 10% FBS (Gibco, Cat #10091148); 1% PenStrep (Gibco, Cat #15140); 0.05 mM 2-mercaptoethanol (Sigma, Cat #M6250). TNF-α content in the culture supernatant was measured by a TNF-α Elisa kit. TNF-α was produced by stimulation of THP-1 cells with 150 ng/mL LPS (Sigma, Cat #L6529). Normal THP-1 cells in logarithmic phase were inoculated in 96-well plates (Corning #3599) at a certain concentration (1×10^5/100 μL) and then incubated in an incubator. After two hours, 16.7 μL of test compound of different concentrations (8×final concentration) was added and the mixture was incubated. After one hour, 16.7 μL of 1200 ng/mL LPS was added and the mixture was incubated. After 18 hours, the culture was centrifuged and the supernatant was collected. The TNF-α content was measured by a TNF-α Elisa kit. Finally, the OD signals (OD450-OD570) were read on an envision plate reader. The OD450-OD570 signals were converted to percent inhibition. Inhibition %=(ZPE−sample)/(ZPE−HPE)×100. “HPE” represents the OD450-OD570 signal value of the control without LPS-stimulated cells, and “ZPE” represents the OD450-OD570 signal value of the control with LPS-stimulated cells. IC50 values for compounds were calculated by XLFit in the Excel. Y=Bottom+(Top−Bottom)/(1+(IC50/X)^HillSlope). Equation: […]
In general terms: ELISA stands for enzyme-linked immunosorbent assay.

Data set [1] in a line: Pharmacokinetic study of oral and intravenous test compounds in SD rats. Type of data set: in vivo. Particulars: rat, plasma, SD male rats; for Vd: read-out: Apparent volume of distribution Vdss; for AUC(0-t): read-out: Area under plasma concentration-time curve AUC0-last; for clearance: read-out: Clearance CL; for half-life: read-out: Half life T1/2 (converted); for bioavailability: read-out: Bioavailability F; for Cmax: read-out: Peak concentration Cmax; for Tmax: read-out: Time to peak Tmax. The method, then: Pharmacokinetic Study of Oral and Intravenous Test Compounds in SD Rats The test compound was mixed with a solution containing 10% of methyl pyrrolidone, 10% of polyethylene glycol stearate and 80% of water. The mixture was vortexed and sonicated to prepare a 1.5 mg/mL clarified solution, which was then filtered through a microporous membrane for later use. SD male rats aged 7 to 10 weeks were selected and administered intravenously with a dose of the candidate compound at 3 mg/kg. The test compound was mixed with 0.5% aqueous methylcellulose solution. The mixture was vortexed and sonicated to prepare a 2 mg/mL suspension for later use. SD male rats aged 7 to 10 weeks were selected and orally administered with a dose of the candidate compound at 10 mg/kg. Whole blood was collected at certain time points, and plasma was separated. The drug concentration was measured by LC-MS/MS, and pharmacokinetic parameters were calculated using Phoenix WinNonlin software (Pharsight, USA).

Data set [2] has as its system LPS-induced TNF-α secretion. As to the kind of experiment: Pharmacodynamic study evaluating LPS-induced TNF-α secretion in SD rats. Particulars: for inhibitory effect on LPS-induced TNF-α secretion: LPS 1 mg/kg i.p.; for efficacy compared with dexamethasone DEX: DEX 0.5 mg/kg. Type of data set: in vivo. The method, then:
Pharmacodynamic Study Evaluating […] (LPS)-Induced TNF-α Secretion in SD Rats SD rats were orally administered with a solvent, dexamethasone (DEX, 0.5 mg/kg) as positive control, and the test compound, and were intraperitoneally injected with LPS (1 mg/kg) 0.5 hours after the administration Animals were euthanized with CO2 2 hours after LPS injection. Cardiac blood was collected into EDTA-K2 vacutainers, and a part of the anticoagulated blood was centrifuged and the plasma was frozen at −80° C. Frozen plasma was thawed at room temperature and the concentration of TNF-α in the plasma was measured using ELISA kit. The experimental data were expressed using mean±SEM, and TNF-α levels were analyzed by One-way ANOVA. Significant differences were considered for p<0.05.

Data set [3] can be described thus: In vitro metabolic stability in liver microsome, human. Type of data set: in vitro ADME. Particulars: Human liver microsomes, 1 μM compound, 0.5 mg/mL protein. The method, then: (§1) Metabolic Stability in Liver Microsome The test compounds at 1 μM were co-incubated with liver microsomes having a protein concentration of 0.5 mg/mL under the action of a reductive coenzyme II regeneration system in a 37° C. water bath. • 1) Positive controls included: testosterone (3A4 substrate), propylamine propiophenone (2D6 substrate), and diclofenac (2C9 substrate). The positive controls were incubated in the same condition as the test compounds. • 2) The reaction was stopped using a stop reagent containing the internal standard at time points of 0, 5, 10, 20, 30 and 60 minutes. […] CLint^mic: intrinsic microsomal clearance;

The nature of data set [4]: In vitro metabolic stability in liver microsome, rat. Type of data set: in vitro ADME. Particulars: Rat liver microsomes, 1 μM compound, 0.5 mg/mL protein. The method, then: as §1
Data set [5] can be described thus: In vitro metabolic stability in liver microsome, dog. Type of data set: in vitro ADME. Particulars: Dog liver microsomes, 1 μM compound, 0.5 mg/mL protein. The method, then:
as §1
(Liver microsomes are a subcellular fraction often used to study metabolism.)

The nature of data set [6]: In vitro metabolic stability in liver microsome, mouse. Particulars: Mouse liver microsomes, 1 μM compound, 0.5 mg/mL protein. Type of data set: in vitro ADME. The method, then:
as §1

Data set [7] in a line: In vitro metabolic stability in liver microsome, monkey. Type of data set: in vitro ADME. As to conditions: Monkey liver microsomes, 1 μM compound, 0.5 mg/mL protein. The method, then: as §1

human IRAK4, sequence (Q9NWZ3 whole entry): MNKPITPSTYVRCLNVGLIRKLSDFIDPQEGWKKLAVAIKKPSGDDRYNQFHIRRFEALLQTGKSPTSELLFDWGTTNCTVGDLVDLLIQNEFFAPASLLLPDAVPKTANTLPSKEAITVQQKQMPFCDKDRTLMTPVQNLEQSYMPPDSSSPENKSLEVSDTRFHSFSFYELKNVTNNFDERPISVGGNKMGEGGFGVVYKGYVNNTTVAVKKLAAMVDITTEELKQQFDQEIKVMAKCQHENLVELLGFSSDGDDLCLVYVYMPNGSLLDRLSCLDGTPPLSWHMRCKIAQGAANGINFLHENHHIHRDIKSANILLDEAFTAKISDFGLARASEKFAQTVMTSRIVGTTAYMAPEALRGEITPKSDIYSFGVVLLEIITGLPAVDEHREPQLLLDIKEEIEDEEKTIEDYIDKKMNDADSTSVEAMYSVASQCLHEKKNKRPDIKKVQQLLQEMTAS

Take `CC(C)c1nsc2nc(Nc3cnn(C4CCOCC4)c3)nc(N[C@H]3CC[C@H](N4CCOCC4)CC3)c12` [WX003]: at human IRAK4, the pIC50 was 8.54. The compound also gave a pIC50 with THP-1 cells of 6.48. In addition, in data set [1] (Intravenous, 3 mg/kg), the Vd worked out at 4.8 L/kg, the AUC(0-t) was determined as 1.33 µM·h, the clearance was determined as 71.4 mL/min/kg and the half-life is 1 h. Besides, in data set [1] (Oral, 10 mg/kg), the AUC(0-t) is 2.01 µM·h, the bioavailability stood at 48%, the Cmax stood at 523 nM and the Tmax was determined as 0.8 h.
In turn, `COC(=O)N1C2CC1CN([C@H]1CC[C@H](Nc3nc(Nc4cnn(C5CCOCC5)c4)nc4snc(C)c34)CC1)C2` [WX044] showed a pIC50 against human IRAK4 of 7.39. In addition, the “inhibitory effect on LPS-induced TNF-α secretion” value in data set [2] (FIG. 2, oral, 20 mpk) is listed as “significant inhibitory effect”.
`c1cc2c(N[C@H]3CC[C@H](N4CCOCC4)CC3)nc(Nc3cnn(C4CCOCC4)c3)nc2s1` [WXR1, reference compound]: the “Re1 h % (residue of test compound at 1 hour)” value (from here on “Re1 h %”) in [3] came to 23.7%; in [4] it was 32.3%; in data set [5] it was 5.5%; in [6] it was 0.0%; in data set [7], 0.6%.
For the compound `Cc1nsc2nc(Nc3cnn(C4CCOC4)c3)nc(N[C@H]3CC[C@H](N4CCOCC4)CC3)c12` (some centres unmarked) [WX007], the negative logarithm of the IC50 (pIC50) at human IRAK4 is 8.24. This compound showed a negative-log IC50 (pIC50) in the data set with THP-1 cells of 6.38. Moreover, in data set [1] (Intravenous, 3 mg/kg), the Vd is 3.3 L/kg, the AUC(0-t) is 1.33 µM·h, the clearance turned out to be 79 mL/min/kg and the half-life is 0.9 h. In addition, in data set [1] (Oral, 10 mg/kg), the AUC(0-t) amounted to 1.64 µM·h, the bioavailability was determined as 38%, the Cmax amounted to 389 nM and the time to peak (Tmax) amounted to 2 h.
At human IRAK4, `Cc1nsc2nc(Nc3cnn(C4COC4)c3)nc(N[C@H]3CC[C@H](N4CCOCC4)CC3)c12` [WX009] gave a pIC50 of 7.67. For the same compound, the pIC50 with THP-1 cells is 6.19. Besides, in data set [1] (Intravenous, 3 mg/kg), the Vd was 5.7 L/kg, the AUC(0-t) came out at 1.46 µM·h, the clearance stood at 73.3 mL/min/kg and the half-life is 1.8 h. Besides, in data set [1] (Oral, 10 mg/kg), the AUC(0-t) stood at 2.69 µM·h, the bioavailability turned out to be 58%, the Cmax came out at 540 nM and the time of peak concentration (Tmax) was 2.5 h.
`Cc1nsc2nc(Nc3cnn(C4CCOCC4)c3)nc(N[C@H]3CC[C@H](N4CCOCC4)CC3)c12` [WX001] had a pIC50 at human IRAK4 of 8.17. In addition, the “Re1 h %” value in data set [3] was determined as 50.0%. Besides, the “Re1 h %” value in data set [4] was found to be 76.6%. Further, in [5], the “Re1 h %” value is 60.5%. In addition, in [6], the “Re1 h %” value amounted to 39.1%. For the same compound, in [7], the “Re1 h %” value is recorded as 3.2%. For the same compound, the pIC50 in the data set with THP-1 cells is 6.75. For the same compound, in data set [1] (Intravenous, 3 mg/kg), the Vd amounted to 4.6 L/kg, the AUC(0-t) stood at 1.75 µM·h, the clearance turned out to be 57 mL/min/kg and the half-life was 1.4 h. Moreover, in data set [1] (Oral, 10 mg/kg), the AUC(0-t) worked out at 2.05 µM·h, the bioavailability was found to be 35%, the Cmax turned out to be 397 nM and the Tmax is 2.3 h. Further, in [2] (FIG. 1, oral, 30 mpk), the “efficacy compared with dexamethasone DEX” value is listed as “equivalent” and the “inhibitory effect on LPS-induced TNF-α secretion” value is “significant inhibitory effect”. Further, the “inhibitory effect compared with reference compounds WXR2, WXR3 and WXR4” value in data set [2] (FIG. 1, oral, same doses (30 mpk)) is recorded as “significantly superior”. In addition, the “inhibitory effect on LPS-induced TNF-α secretion” value in data set [2] (FIG. 2, oral, 20 mpk) is “significant inhibitory effect”.
Take `COC(=O)N1CCN([C@H]2CC[C@H](Nc3nc(Nc4cnn(C5CCOCC5)c4)nc4snc(C)c34)CC2)CC1` [WX026]: the negative-log IC50 (pIC50) on human IRAK4 is 8.70. In the data set on THP-1 cells, this compound gave a pIC50 of 6.81. In [1] (Intravenous, 3 mg/kg), the Vd was 4.5 L/kg, the AUC(0-t) came to 1.77 µM·h, the clearance turned out to be 50.6 mL/min/kg and the half-life was 2.2 h. In data set [1] (Oral, 10 mg/kg), the AUC(0-t) came to 1.36 µM·h, the bioavailability worked out at 23%, the Cmax is 308 nM and the time of peak concentration (Tmax) stood at 1.5 h. For the same compound, in data set [2] (FIG. 2, oral, 20 mpk), the “efficacy compared with dexamethasone DEX” value is listed as “equivalent” and the “inhibitory effect on LPS-induced TNF-α secretion” value was “significant inhibitory effect”.
In the case of `Cc1nsc2nc(Nc3cnn(C[C@H]4COCCO4)c3)nc(N[C@H]3CC[C@H](N4CCOCC4)CC3)c12` [WX014], the pIC50 against human IRAK4 was 7.52; in the data set with THP-1 cells, 6.18.
In the same order, the values of `N#CCc1nsc2nc(Nc3cnn(C4CCOCC4)c3)nc(N[C@H]3CC[C@H](N4CCOCC4)CC3)c12` [WX055] are 7.93 and 6.78.
Consider `CC(=O)N1CCN([C@H]2CC[C@H](Nc3nc(Nc4cnn(C5CCOCC5)c4)nc4snc(C)c34)CC2)CC1` [WX027], for which the pIC50 is 8.48 on human IRAK4 and 6.19 in the data set with THP-1 cells.
